Reference: US8012959B2, “Diaminopyrimidinecarboxamide derivative” (Astellas Pharma Inc., priority 2002, dated 2011)

How the values were obtained:
T cells = assay: Th2 differentiation (IL-4 production by differentiated mouse spleen T cells, ELISA); assay type: cell-based; details: inhibition of Th2 differentiation (IL-4 production, ELISA), C57BL/6 mouse spleen T cells
Procedure: Measurement of Th2 Differentiation
T cells were prepared by removing nylon wool (Wako Pure Chemical Industries)-adhering cells from C57BL/6 mouse (Charles River Japan) spleen cells. Using a 96 well plate to which an anti-CD3ε antibody (10 μg/ml) (Sederlane) had been immobilized in advance, T cells (2×10^5 cells/0.2 ml) were inoculated under stimulation with anti-CD28 antibody (1 μg/ml) (Pharmingen), IL-2 (10 ng/ml) (Peprotech) and IL-4 (10 ng/ml) (Peprotech). After 2 days of the culturing, total volume of the cell suspension was diluted to 2 ml with a medium containing IL-2 (10 ng/ml) and IL-4 (10 ng/ml). The differentiation was induced by further carrying out the culturing for 3 days. By counting the cell density, the cells after differentiation were adjusted to 1×10^6 cells/ml and inoculated into a 96 well plate immobilized with the anti-CD3 ε antibody, in order to induce IL-4 production. The supernatant after 24 hours of the stimulation was recovered, and the IL-4 production was determined by an ELISA method. The antibody used in the ELISA was purchased from Pharmingen. Also, an HRPO-labeled streptoavidin (Amersham Pharmacia) was used in the detection of biotinylated antibody, and a peroxidase color developing reagent (Sumitomo Bakelite) was used in the HRPO color development. In the case of the evaluation of compounds, compound dilutions were added to the wells before the addition of T cells, at the time of the dilution 2 days later, compounds equivalent to the initial concentration were added. Also, regarding the dilution of compounds, dilution was carried out using 10% FBS-containing RPMI 1640 such that the final concentration of DMSO in which each compound was dissolved became 0.1% or less. Inhibitory activity of each tested compound was evaluated in which the IL-4 production when DMSO was added instead of the compound was regarded as 100%, and the IL-4 production when anti-CD28 antibody and IL-4 were not added as 0%.

STAT 6 = biological target: T1, STAT 6 (Mus musculus, UniProt P52633); assay: STAT 6-dependent reporter activity (IL-4-stimulated CI/FW4 luciferase reporter cell); assay type: cell-based, human
T1 construct: An STAT 6 reporter cell CI/FW4 was constructed by the above operation; endogenous in cells; host or cells: CI/FW4 (FW4 cell stably carrying the pGL2-CI/bs luciferase reporter)
T1 sequence (P52633 1-837): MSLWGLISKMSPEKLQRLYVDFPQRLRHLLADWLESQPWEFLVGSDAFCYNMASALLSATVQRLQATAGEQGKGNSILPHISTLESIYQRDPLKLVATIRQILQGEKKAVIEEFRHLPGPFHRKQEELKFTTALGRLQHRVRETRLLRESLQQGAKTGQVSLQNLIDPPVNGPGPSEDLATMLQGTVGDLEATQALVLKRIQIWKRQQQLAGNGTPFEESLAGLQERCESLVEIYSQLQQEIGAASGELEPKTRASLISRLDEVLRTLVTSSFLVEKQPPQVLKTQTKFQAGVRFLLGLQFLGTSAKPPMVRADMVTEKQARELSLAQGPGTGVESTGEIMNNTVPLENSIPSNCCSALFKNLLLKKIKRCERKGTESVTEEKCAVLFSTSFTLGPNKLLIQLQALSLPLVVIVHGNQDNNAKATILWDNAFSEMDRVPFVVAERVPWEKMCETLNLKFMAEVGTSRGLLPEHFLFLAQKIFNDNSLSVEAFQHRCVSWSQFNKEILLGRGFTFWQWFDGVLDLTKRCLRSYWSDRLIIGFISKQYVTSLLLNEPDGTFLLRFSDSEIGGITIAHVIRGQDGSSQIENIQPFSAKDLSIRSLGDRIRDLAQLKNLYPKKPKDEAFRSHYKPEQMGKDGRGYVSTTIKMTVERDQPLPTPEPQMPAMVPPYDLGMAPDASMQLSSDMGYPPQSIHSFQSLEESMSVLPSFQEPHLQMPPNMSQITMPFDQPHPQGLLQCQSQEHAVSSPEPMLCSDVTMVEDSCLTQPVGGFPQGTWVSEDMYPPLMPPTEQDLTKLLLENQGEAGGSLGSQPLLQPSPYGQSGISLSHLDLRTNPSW
Procedure: Measurement of STAT 6-Dependent Reporter Activity 1) Construction of STAT 6 Reactive Reporter Plasmid A STAT 6 reporter plasmid pGL2-CI was prepared by the following method. […] Also, […] sequence DNA molecules (SEQ ID NOs:3 and 4) contained in the adenovirus major late promoter were annealed and inserted into BglII and HindIII sites of the same vector. Thereafter, pGL2-CI/bs was constructed by inserting the blasticidin resistance gene of pUCSV-BD (Funakoshi) into BamHI site of the constructed pGL2-CI. 2) Construction of STAT 6 Reporter Cell Gene transfer of […] into a human IL-4 reactive cell FW4 cell (Mol. Cell. Biol., 14: 5433-5440) was carried out by the electroporation method (320 V, 960 μF/0.4 cm cuvette (Nippon Bio-Rad Laboratories)), and 6 μg/ml of blasticidin (Funakoshi) was added 40 hours thereafter to select a resistant cell. Confirmation of constant transfer of the reporter plasmid was carried out by detecting luciferase induce by IL-4 stimulation. An STAT 6 reporter cell CI/FW4 was constructed by the above operation. 3) STAT Reporter Assay Using CI/FW4 Cell Stimulation of the CI/FW4 cell (1×10^4 cells/0.1 ml) with 10 ng/ml of human IL-4 (Genzyme Techne) was carried out using a white 96 well plate (Nunc). In the case of the evaluation of compounds, compound dilutions were added to the wells before inoculating the cells into the 96 well plate. […] Thereafter, 50 μl of a luciferase substrate solution (10 mM Tris-HCl pH 7.8, 5 mM luciferin, 2 mM coenzyme A, 2 mM ATP, 0.5 mM MgCl2 and 2 mM Mg(OH)2) was added, followed by stirring for 1 minute. Then, the luciferase activity was measured using ML3000 luminometer (Dynatech Laboratories, Inc). Inhibitory activities of tested compounds were evaluated in which the luminescence intensity (relative light unit: […] The results are shown in the following Table 26.

| SMILES | Inh (%) (T cells) | inhibition at 0.1 µM (STAT 6; inhibition ratio at 0.1 μM compound, IL-4-stimulated CI/FW4 cell, luciferase) [%] | inhibition at 1 µM (STAT 6; inhibition ratio at 1 μM compound, IL-4-stimulated CI/FW4 cell, luciferase) [%] | inhibition of STAT 6-dependent reporter activity (activity similar to the compounds of Table 26) (STAT 6; CI/FW4 cell, 10 ng/ml human IL-4, luciferase) |
| --- | --- | --- | --- | --- |
| Cc1cccc(Nc2nc(N[C@@H]3CCCC[C@@H]3N)ncc2C(N)=O)c1 (relative stereo) [ref 2, 2-(cis-2-aminocyclohexylamino)-4-(3-methylanilino)pyrimidine-5-carboxamide, reference compound] | 0 | – | – | – |
| NC(=O)c1cnc(NCCc2ccc(O)c(Cl)c2)nc1NCc1ccccc1 [Example 1, 4-benzylamino-2-{[2-(3-chloro-4-hydroxyphenyl)ethyl]amino}pyrimidine-5-carboxamide] | 88 | 89 | 100 | – |
| NC(=O)c1cnc(NCCc2cc(Cl)c(O)c(Cl)c2)nc1NCc1ccccc1 [Example 16] | 82 | – | – | good activity |
| Cc1cccc(Nc2nc(NCCN)ncc2C(N)=O)c1 [ref 1, 2-(2-aminoethylamino)-4-(3-methylanilino)pyrimidine-5-carboxamide, reference compound] | 0 | – | – | – |
